≈ marks a conversion by molar mass, not a printed value.
How the values were obtained:
C. albicans ATCC 90028 = assay: MFC by the agar method; details: for MFC/MIC ratio: C. Albicans, ≤ 4 fungicidal, >4 fungistatic; for MFC: Candida albicans, ATCC90028
Experimental: (§2) To further determine the killing efficiency of the synthesized spiropyrrolidines against selected strains, the minimum bactericidal concentration (MBC) and the minimum fungicidal concentration (MFC) were assessed by the agar method [54].

E. coli ATCC 25922 = assay: MBC by the agar method
Experimental: as §2

P. aeruginosa ATCC 27950 = assay: MBC by the agar method; details: Pseudomonas aeruginosa, ATCC27950
Experimental: as §2

M. luteus NCIMB 8166 = assay: MBC by the agar method; details: for MBC: Micrococcus luteus, NCIMB8166
Experimental: as §2

S. aureus ATCC 25923 = assay: MBC by the agar method; details: for MBC: Staphylococcus aureus, ATCC25923
Experimental: as §2

C. kreusei ATCC 6258 = assay: MFC by the agar method; details: for MFC/MIC ratio: C. Krusei, ≤ 4 fungicidal, >4 fungistatic; for MFC: Pichia kudriavzevii, ATCC6258
Experimental: as §2

[1] = test system: Staphylocoocus aureus ATCC 25923; assay: MIC, in vitro micro diffusion method; format: cell-based; details: Staphylococcus aureus, ATCC25923; S. aureus ATCC 25923
Source text: (§1) In this part, the spiropyrrolidines 4a–m were selected to be screening for their antimicrobial activities, using in vitro micro diffusion method, against multiple bacterial strains (Staphylocoocus aureus ATCC 25923, Escherichia coli ATCC 25922, Pseudomonas aeruginosa ATCC 27950, Micrococcus luteus NCIMB 8166), and two pathogenic reference yeasts namely Candida albicans ATCC 90028 and Candida kreusei ATCC 6258.

[2] = target: T1, Lipoxygenase-5 (LOX-5) enzyme (Homo sapiens, UniProt P09917); assay: In vitro lipoxygenase (LOX-5) inhibitory assay; format: biochemical; details: mean ± SEM, n = 5; read-out: IC50 (LOX-5 inhibition) (converted)
T1 construct: purchased sigma 437996-500U
T1 sequence (P09917 1-674): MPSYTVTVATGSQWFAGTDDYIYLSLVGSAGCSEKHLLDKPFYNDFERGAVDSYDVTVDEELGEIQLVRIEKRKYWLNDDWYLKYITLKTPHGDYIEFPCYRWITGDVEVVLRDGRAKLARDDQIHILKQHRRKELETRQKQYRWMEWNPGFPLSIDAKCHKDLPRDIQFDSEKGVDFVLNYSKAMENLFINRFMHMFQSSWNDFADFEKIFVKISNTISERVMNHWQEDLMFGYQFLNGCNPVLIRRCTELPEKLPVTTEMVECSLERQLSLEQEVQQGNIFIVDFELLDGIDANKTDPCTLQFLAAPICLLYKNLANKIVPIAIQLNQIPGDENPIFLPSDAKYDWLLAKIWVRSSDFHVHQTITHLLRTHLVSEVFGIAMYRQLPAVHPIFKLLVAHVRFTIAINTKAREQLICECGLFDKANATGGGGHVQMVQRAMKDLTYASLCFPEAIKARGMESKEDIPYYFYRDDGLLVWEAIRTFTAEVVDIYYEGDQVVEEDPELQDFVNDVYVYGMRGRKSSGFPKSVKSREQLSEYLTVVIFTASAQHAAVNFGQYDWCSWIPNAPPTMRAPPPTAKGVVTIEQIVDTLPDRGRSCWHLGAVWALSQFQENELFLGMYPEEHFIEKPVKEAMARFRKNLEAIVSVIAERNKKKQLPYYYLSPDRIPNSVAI
Experimental: Lipoxygenases are a family of monomeric proteins that catalyze oxidation of polyunsaturated fatty acids (PUFA) (linoleic, linolenic and arachidonic acid) to produce hydroperoxides. Fractions’ anti-LOX activity was also measured as inhibition of linoleic acid’s peroxidation to hydroperoxylinoleic acid.
To evaluate the prospects of the newly synthesized spirooxindoles as promising drug candidates, we first studied their inhibitory potency against the Lipoxygenase-5 (LOX-5) enzyme.

[3] = test system: Micrococcus luteus NCIMB 8166; assay: MIC, in vitro micro diffusion method; format: cell-based; details: NCIMB8166, M. luteus NCIMB 8166
Source text: as §1

[4] = test system: λ-carrageenan-induced paw edema; assay: Carrageenan-induced paw edema test; format: in vivo; details: rats; for Increase in Paw Volume, 0 h / Increase in Paw Volume, 1 h / Increase in Paw Volume, 2 h / Increase in Paw Volume, 4 h: 10 mg/kg orally 1 h before carrageenan; for % Inhibition of Edema, 1 h / % Inhibition of Edema, 2 h / % Inhibition of Edema, 4 h: 10 mg/kg orally
Source text: Diclofenac sodium was used as a reference drug.

[5] = test system: acetic acid-induced writhing; assay: Acetic acid-induced writhing test (analgesic); details: 100 mg/kg; for Number of Writhing: mean ± SE
Experimental: Any writhing was considered a positive response. The efficacy and potency of analgesic activity of the test compounds is inferred from the reduction in the frequency of writhings [53].
Analgesic activity in rats was determined by the protocol described by Tiss et al. [82].

[6] = Acute toxicity (liver and kidney indices); format: in vivo; details: rats; for ALT / AST / Albumin / Creat / Urea: dose of 16.25 mg/kg; for Acute toxicity (result in words): up to a dose of 16.25 mg/kg
[7] = Escherichia coli, ATCC25922, E. coli ATCC 25922

## Cc1ccc([C@H]2[C@H](c3ccccc3)N[C@@]3(C(=O)Nc4ccc(Br)cc43)[C@@]23NC(=O)NC3=O)cc1 (racemic) [4b]
C. albicans ATCC 90028
  MFC/MIC ratio: ≤ 4
  MFC: 188 µg/mL (≈ 362 µM)
E. coli ATCC 25922; E. coli ATCC 25922
  MBC: 375 µg/mL (≈ 725 µM)
E. coli ATCC 25922; [7]
  MBC: 188 to 374 µg/mL (≈ 362 to 723 µM)
P. aeruginosa ATCC 27950
  MBC: 93.8 µg/mL (≈ 181 µM)
M. luteus NCIMB 8166
  MBC: 750 µg/mL (≈ 1450 µM)
S. aureus ATCC 25923; S. aureus, ≤ 4 bactericidal, >4 bacteriostatic
  MBC/MIC ratio: 16
S. aureus ATCC 25923
  MBC: 750 µg/mL (≈ 1450 µM)
C. kreusei ATCC 6258
  MFC/MIC ratio: ≤ 4
  MFC: 93.8 µg/mL (≈ 181 µM)
[1]
  MIC: 46.9 µg/mL (≈ 90.6 µM)
other
  melting point: 236 °C
[2]
  IC50: 5.66 mM

## COc1ccc([C@H]2[C@H](c3ccccc3)N[C@@]3(C(=O)Nc4ccccc43)[C@@]23NC(=O)NC3=O)cc1 (racemic) [4d]
C. albicans ATCC 90028
  MFC: > 1500 µg/mL
E. coli ATCC 25922; E. coli ATCC 25922
  MBC: 375 µg/mL (≈ 825 µM)
E. coli ATCC 25922; [7]
  MBC: 188 to 374 µg/mL (≈ 413 to 823 µM)
P. aeruginosa ATCC 27950
  MBC: 188 µg/mL (≈ 413 µM)
M. luteus NCIMB 8166
  MBC: 750 µg/mL (≈ 1650 µM)
S. aureus ATCC 25923
  MBC: 93.8 µg/mL (≈ 206 µM)
C. kreusei ATCC 6258
  MFC: 93.8 µg/mL (≈ 206 µM)
other
  melting point: 187 °C
[2]
  IC50: 5.15 mM

## O=C1NC(=O)[C@]2(N1)[C@@H](c1ccc(Cl)cc1)[C@H](c1ccccc1)N[C@@]21C(=O)N(Cc2ccccc2)c2ccccc21 (racemic) [4f]
C. albicans ATCC 90028
  MFC: 93.8 µg/mL (≈ 171 µM)
E. coli ATCC 25922; E. coli ATCC 25922
  MBC: 375 µg/mL (≈ 683 µM)
E. coli ATCC 25922; [7]
  MBC: 188 to 374 µg/mL (≈ 342 to 681 µM)
P. aeruginosa ATCC 27950
  MBC: 375 µg/mL (≈ 683 µM)
M. luteus NCIMB 8166
  MBC: 750 µg/mL (≈ 1370 µM)
S. aureus ATCC 25923
  MBC: 188 µg/mL (≈ 342 µM)
C. kreusei ATCC 6258
  MFC: 93.8 µg/mL (≈ 171 µM)
other
  melting point: 195 °C
[2]
  IC50: 8.96 mM

## O=C1NC(=O)[C@]2(N1)[C@@H](c1ccc(Cl)cc1)[C@H](c1ccccc1)N[C@@]21C(=O)Nc2ccc(Br)cc21 (racemic) [4h]
C. albicans ATCC 90028
  MFC: > 1500 µg/mL
E. coli ATCC 25922; E. coli ATCC 25922
  MBC: 375 µg/mL (≈ 697 µM)
E. coli ATCC 25922; [7]
  MBC: 188 to 374 µg/mL (≈ 349 to 695 µM)
P. aeruginosa ATCC 27950
  MBC: 188 µg/mL (≈ 349 µM)
M. luteus NCIMB 8166; M. luteus, ≤ 4 bactericidal, >4 bacteriostatic
  MBC/MIC ratio: 8
M. luteus NCIMB 8166
  MBC: 188 µg/mL (≈ 349 µM)
S. aureus ATCC 25923
  MBC: 188 µg/mL (≈ 349 µM)
C. kreusei ATCC 6258
  MFC: > 1500 µg/mL
[3]
  MIC: 93.8 µg/mL (≈ 174 µM)
other
  melting point: 198 °C
[2]
  IC50: 3.09 mM

## O=C1NC(=O)[C@]2(N1)[C@@H](c1ccc(F)cc1)[C@H](c1ccccc1)N[C@@]21C(=O)Nc2ccccc21 (racemic) [4i]
[4]
  Increase in Paw Volume, 0 h: 0.43 ± 0.14
  Increase in Paw Volume, 1 h: 0.98 ± 0.11
  Increase in Paw Volume, 2 h: 1.13 ± 0.21
  Increase in Paw Volume, 4 h: 1.51 ± 0.13
  % Inhibition of Edema, 1 h: 27%
  % Inhibition of Edema, 2 h: 25%
[4]; 10 mg/kg
  % Inhibition of Edema, 4 h: 33%
C. albicans ATCC 90028
  MFC/MIC ratio: ≤ 4
  MFC: 93.8 µg/mL (≈ 212 µM)
E. coli ATCC 25922; [7]
  MBC: 750 µg/mL (≈ 1700 µM)
P. aeruginosa ATCC 27950
  MBC: 188 µg/mL (≈ 424 µM)
[5]
  % Inhibition (writhing): 42%
  Number of Writhing: 36 ± 5
M. luteus NCIMB 8166
  MBC: > 1500 µg/mL
[6]
  ALT: 21.1 ± 1.5 U/L
  AST: 98.3 ± 13 U/L
  Albumin: 8.7 ± 1.66 g/L
  Creat: 3.31 ± 0.9 µmol/L
  Urea: 2.83 ± 0.7 mmol/L
  Acute toxicity (result in words): did not cause any toxicity
S. aureus ATCC 25923
  MBC: 750 µg/mL (≈ 1700 µM)
C. kreusei ATCC 6258
  MFC/MIC ratio: ≤ 4
  MFC: 188 µg/mL (≈ 424 µM)
[2]
  IC50: 2.28 mM

## O=C1NC(=O)[C@]2(N1)[C@@H](c1ccc(F)cc1)[C@H](c1ccccc1)N[C@@]21C(=O)Nc2ccc(Cl)cc21 (racemic) [4j]
C. albicans ATCC 90028
  MFC: 93.8 µg/mL (≈ 197 µM)
E. coli ATCC 25922; [7]
  MBC: 188 µg/mL (≈ 393 µM)
P. aeruginosa ATCC 27950
  MBC: 93.8 µg/mL (≈ 197 µM)
M. luteus NCIMB 8166
  MBC: 750 µg/mL (≈ 1570 µM)
S. aureus ATCC 25923
  MBC: 93.8 µg/mL (≈ 197 µM)
C. kreusei ATCC 6258
  MFC: 188 µg/mL (≈ 393 µM)
other
  melting point: 208 °C
[2]
  IC50: 4.03 mM

## O=C1NC(=O)[C@]2(N1)[C@@H](c1ccc(F)cc1)[C@H](c1ccccc1)N[C@@]21C(=O)Nc2ccc(Br)cc21 (racemic) [4k]
C. albicans ATCC 90028
  MFC/MIC ratio: ≤ 4
  MFC: 188 µg/mL (≈ 360 µM)
E. coli ATCC 25922; [7]
  MBC: 188 µg/mL (≈ 360 µM)
P. aeruginosa ATCC 27950
  MBC: 188 µg/mL (≈ 360 µM)
M. luteus NCIMB 8166
  MBC: > 1500 µg/mL
S. aureus ATCC 25923
  MBC: 188 µg/mL (≈ 360 µM)
C. kreusei ATCC 6258
  MFC/MIC ratio: ≤ 4
  MFC: 188 µg/mL (≈ 360 µM)
other
  melting point: 223 °C
[2]
  IC50: 2.97 mM

## O=C1NC(=O)[C@]2(N1)[C@@H](c1ccccc1O)[C@H](c1ccccc1)N[C@@]21C(=O)Nc2ccccc21 (racemic) [4l]
[4]
  Increase in Paw Volume, 0 h: 0.57 ± 0.19
  Increase in Paw Volume, 1 h: 0.93 ± 0.13
  Increase in Paw Volume, 2 h: 1.26 ± 0.31
  Increase in Paw Volume, 4 h: 1.73 ± 0.33
  % Inhibition of Edema, 1 h: 29%
  % Inhibition of Edema, 2 h: 18%
  % Inhibition of Edema, 4 h: 32%
C. albicans ATCC 90028
  MFC/MIC ratio: ≤ 4
  MFC: 188 µg/mL (≈ 426 µM)
E. coli ATCC 25922; [7]
  MBC: 188 µg/mL (≈ 426 µM)
P. aeruginosa ATCC 27950
  MBC: 93.8 µg/mL (≈ 213 µM)
[5]
  % Inhibition (writhing): 53%
  Number of Writhing: 29 ± 6
M. luteus NCIMB 8166
  MBC: 750 µg/mL (≈ 1700 µM)
[6]
  ALT: 22 ± 1.7 U/L
  AST: 101 ± 11 U/L
  Albumin: 8.5 ± 1.1 g/L
  Creat: 3.41 ± 0.8 µmol/L
  Urea: 2.97 ± 0.5 mmol/L
  Acute toxicity (result in words): did not cause any toxicity
S. aureus ATCC 25923
  MBC: 93.8 µg/mL (≈ 213 µM)
C. kreusei ATCC 6258
  MFC/MIC ratio: ≤ 4
  MFC: 93.8 µg/mL (≈ 213 µM)
[1]
  MIC: 46.9 µg/mL (≈ 106 µM)
[2]
  IC50: 2.47 mM

## O=C(O)Cc1ccccc1Nc1c(Cl)cccc1Cl [Diclofenac sodium, reference compound]
[4]
  Increase in Paw Volume, 0 h: 0.41 ± 0.11
  Increase in Paw Volume, 1 h: 0.59 ± 0.13
  Increase in Paw Volume, 2 h: 0.83 ± 0.19
  Increase in Paw Volume, 4 h: 1.21 ± 0.39
  % Inhibition of Edema, 1 h: 30%
  % Inhibition of Edema, 2 h: 46%
  % Inhibition of Edema, 4 h: 46%
[5]
  % Inhibition (writhing): 63%
  Number of Writhing: 23 ± 4
[5]; listed as diclofenac sodium
  Number of Writhing: 23

## CN(C)[C@@H]1C(O)=C(C(N)=O)C(=O)[C@@]2(O)C(O)=C3C(=O)c4c(O)cccc4[C@@](C)(O)[C@H]3C[C@@H]12 [Tetracycline, reference compound]
E. coli ATCC 25922; [7]
  MBC: 512 µg/mL (≈ 1150 µM)
P. aeruginosa ATCC 27950
  MBC: 128 µg/mL (≈ 288 µM)
M. luteus NCIMB 8166
  MBC: 512 µg/mL (≈ 1150 µM)
S. aureus ATCC 25923
  MBC: 8 µg/mL (≈ 18 µM)
[3]
  MIC: 500 µg/mL (≈ 1130 µM)
